What was measured:
Test in all cases: KINOMEscan competition binding
Settings in all cases: compound 10.0 µM
[1] = molecular target: PRKD1 (human) (UniProt Q15139)
[2] = molecular target: MAP2K2 (human) (UniProt P36507)
[3] = molecular target: KDR (human) (UniProt P35968)
[4] = molecular target: ANKK1 (human) (UniProt Q8NFD2)
[5] = molecular target: FLT1 (human) (UniProt P17948)
[6] = system: EGFR (human), P00533 [A750P; 747-749 del]
[7] = molecular target: YES1 (human) (UniProt P07947)
[8] = molecular target: MAP2K4 (human) (UniProt P45985)
[9] = molecular target: ACVR2A (human) (UniProt P27037)
[10] = molecular target: PKN1 (human) (UniProt Q16512)
[11] = molecular target: PRKAA1 (human) (UniProt Q13131)
[12] = molecular target: SRPK2 (human) (UniProt P78362)
[13] = molecular target: MAPK8 (human) (UniProt P45983)
[14] = molecular target: PAK7 (human) (UniProt Q9P286)
[15] = molecular target: LIMK2 (human) (UniProt P53671)
Sequence of LIMK2 (human) (P53671 whole entry, looked up): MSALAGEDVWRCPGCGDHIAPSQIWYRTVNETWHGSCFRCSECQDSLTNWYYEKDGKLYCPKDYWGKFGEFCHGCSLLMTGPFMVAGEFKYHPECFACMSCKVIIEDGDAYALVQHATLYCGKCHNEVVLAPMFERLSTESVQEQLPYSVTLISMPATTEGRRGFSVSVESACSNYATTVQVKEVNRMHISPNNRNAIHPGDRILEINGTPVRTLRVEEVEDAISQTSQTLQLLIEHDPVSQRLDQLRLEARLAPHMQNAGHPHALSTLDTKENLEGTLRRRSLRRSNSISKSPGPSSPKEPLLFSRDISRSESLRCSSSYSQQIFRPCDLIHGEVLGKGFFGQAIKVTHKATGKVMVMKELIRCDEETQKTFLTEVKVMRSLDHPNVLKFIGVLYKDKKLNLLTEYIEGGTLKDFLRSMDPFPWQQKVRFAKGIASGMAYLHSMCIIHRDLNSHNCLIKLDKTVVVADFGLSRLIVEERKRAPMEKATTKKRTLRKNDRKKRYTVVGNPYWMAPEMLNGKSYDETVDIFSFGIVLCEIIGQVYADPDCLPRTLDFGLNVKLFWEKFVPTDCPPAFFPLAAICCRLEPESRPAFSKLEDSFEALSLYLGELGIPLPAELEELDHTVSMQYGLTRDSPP

[16] = molecular target: RIPK2 (human) (UniProt O43353)
[17] = molecular target: MAPK3 (human) (UniProt P27361)
[18] = molecular target: NEK9 (human) (UniProt Q8TD19)
Sequence of NEK9 (human) (Q8TD19 whole entry, looked up): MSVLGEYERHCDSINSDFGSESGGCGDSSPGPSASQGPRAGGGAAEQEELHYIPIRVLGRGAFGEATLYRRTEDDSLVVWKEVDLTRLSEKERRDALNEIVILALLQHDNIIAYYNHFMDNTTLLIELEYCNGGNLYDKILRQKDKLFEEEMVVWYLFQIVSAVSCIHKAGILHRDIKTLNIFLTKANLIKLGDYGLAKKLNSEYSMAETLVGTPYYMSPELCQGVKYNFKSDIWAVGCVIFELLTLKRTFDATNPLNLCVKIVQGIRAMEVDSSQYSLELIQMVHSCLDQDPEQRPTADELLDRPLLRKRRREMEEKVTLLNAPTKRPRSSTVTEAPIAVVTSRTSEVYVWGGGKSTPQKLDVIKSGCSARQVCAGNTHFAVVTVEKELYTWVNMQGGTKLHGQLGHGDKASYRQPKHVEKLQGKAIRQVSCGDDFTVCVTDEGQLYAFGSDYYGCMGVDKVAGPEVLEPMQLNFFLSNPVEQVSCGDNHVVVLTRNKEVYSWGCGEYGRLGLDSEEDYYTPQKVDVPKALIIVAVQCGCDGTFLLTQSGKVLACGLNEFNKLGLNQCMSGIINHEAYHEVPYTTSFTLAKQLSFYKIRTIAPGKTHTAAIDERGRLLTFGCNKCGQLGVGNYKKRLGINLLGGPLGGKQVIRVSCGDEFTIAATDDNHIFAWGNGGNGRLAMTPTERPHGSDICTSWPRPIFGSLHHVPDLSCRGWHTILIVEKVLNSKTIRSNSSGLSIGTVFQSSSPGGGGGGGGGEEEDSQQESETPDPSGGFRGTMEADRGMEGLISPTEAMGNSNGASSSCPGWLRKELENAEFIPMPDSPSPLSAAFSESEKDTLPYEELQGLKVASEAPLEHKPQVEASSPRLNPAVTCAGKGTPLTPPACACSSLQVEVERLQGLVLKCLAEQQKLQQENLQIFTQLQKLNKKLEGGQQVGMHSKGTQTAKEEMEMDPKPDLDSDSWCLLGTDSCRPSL

[19] = molecular target: RIOK1 (human) (UniProt Q9BRS2)
[20] = molecular target: TNK2 (human) (UniProt Q07912)
[21] = molecular target: MKNK2 (human) (UniProt Q9HBH9)
[22] = molecular target: AURKC (human) (UniProt Q9UQB9)
[23] = molecular target: CAMK2D (human) (UniProt Q13557)
Sequence of CAMK2D (human) (Q13557 whole entry, looked up): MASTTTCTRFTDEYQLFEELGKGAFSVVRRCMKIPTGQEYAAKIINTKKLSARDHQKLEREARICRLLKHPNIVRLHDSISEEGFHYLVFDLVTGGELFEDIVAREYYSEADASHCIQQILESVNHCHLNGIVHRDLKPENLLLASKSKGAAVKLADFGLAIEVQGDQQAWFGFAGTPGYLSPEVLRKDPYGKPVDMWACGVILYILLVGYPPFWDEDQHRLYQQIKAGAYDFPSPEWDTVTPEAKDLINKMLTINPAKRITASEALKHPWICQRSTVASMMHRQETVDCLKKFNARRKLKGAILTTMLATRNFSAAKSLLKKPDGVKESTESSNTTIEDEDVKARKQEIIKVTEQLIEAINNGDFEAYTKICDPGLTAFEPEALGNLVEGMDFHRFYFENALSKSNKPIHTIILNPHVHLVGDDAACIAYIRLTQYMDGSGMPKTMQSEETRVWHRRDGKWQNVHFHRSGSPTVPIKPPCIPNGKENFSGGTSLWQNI

[24] = molecular target: MAP3K4 (human) (UniProt Q9Y6R4)
[25] = molecular target: FLT4 (human) (UniProt P35916)
Sequence of FLT4 (human) (P35916 whole entry, looked up): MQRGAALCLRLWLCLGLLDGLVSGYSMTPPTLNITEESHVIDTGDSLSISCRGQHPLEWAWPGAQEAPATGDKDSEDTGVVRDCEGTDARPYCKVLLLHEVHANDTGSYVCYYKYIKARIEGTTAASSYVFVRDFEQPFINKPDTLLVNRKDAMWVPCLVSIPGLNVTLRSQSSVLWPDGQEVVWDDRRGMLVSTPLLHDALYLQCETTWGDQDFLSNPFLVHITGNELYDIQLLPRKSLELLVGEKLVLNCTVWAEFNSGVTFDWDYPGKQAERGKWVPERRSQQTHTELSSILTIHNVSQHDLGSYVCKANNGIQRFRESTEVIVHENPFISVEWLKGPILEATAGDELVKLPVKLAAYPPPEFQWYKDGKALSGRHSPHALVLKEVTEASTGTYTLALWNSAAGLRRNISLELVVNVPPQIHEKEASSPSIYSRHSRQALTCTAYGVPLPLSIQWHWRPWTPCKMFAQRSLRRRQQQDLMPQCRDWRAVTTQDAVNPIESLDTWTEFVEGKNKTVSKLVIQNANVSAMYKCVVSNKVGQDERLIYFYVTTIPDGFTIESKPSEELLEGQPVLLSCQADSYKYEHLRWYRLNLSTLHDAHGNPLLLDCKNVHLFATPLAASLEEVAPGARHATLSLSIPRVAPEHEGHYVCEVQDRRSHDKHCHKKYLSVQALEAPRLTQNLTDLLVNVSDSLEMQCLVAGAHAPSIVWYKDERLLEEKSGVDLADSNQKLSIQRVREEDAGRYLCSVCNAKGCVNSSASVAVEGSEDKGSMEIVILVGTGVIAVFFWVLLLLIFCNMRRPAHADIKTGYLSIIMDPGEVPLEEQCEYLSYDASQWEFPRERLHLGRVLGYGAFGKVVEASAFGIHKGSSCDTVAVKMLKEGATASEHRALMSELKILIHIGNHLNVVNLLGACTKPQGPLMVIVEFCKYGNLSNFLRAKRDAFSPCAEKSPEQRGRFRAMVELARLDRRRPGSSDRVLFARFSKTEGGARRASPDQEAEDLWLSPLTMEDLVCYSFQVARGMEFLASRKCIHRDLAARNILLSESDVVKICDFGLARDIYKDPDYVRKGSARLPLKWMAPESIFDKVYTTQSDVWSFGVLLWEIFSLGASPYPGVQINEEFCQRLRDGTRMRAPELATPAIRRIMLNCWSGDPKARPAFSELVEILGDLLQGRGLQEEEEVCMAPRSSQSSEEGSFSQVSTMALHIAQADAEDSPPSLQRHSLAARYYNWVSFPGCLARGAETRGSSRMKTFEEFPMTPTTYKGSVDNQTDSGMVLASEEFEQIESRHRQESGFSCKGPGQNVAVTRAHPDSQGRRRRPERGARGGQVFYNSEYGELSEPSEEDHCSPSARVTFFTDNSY

[26] = molecular target: DDR1 (human) (UniProt Q08345)
[27] = molecular target: TYRO3 (human) (UniProt Q06418)
[28] = molecular target: PIK3CG (human) (UniProt P48736)
[29] = molecular target: PRKAA2 (human) (UniProt P54646)
[30] = molecular target: DYRK1B (human) (UniProt Q9Y463)
[31] = molecular target: IRAK1 (human) (UniProt P51617)
[32] = molecular target: PIK3C2G (human) (UniProt O75747)
[33] = molecular target: HIPK4 (human) (UniProt Q8NE63)
[34] = molecular target: EPHB6 (human) (UniProt O15197)

Sequence of YES1 (human) (P07947 whole entry, looked up): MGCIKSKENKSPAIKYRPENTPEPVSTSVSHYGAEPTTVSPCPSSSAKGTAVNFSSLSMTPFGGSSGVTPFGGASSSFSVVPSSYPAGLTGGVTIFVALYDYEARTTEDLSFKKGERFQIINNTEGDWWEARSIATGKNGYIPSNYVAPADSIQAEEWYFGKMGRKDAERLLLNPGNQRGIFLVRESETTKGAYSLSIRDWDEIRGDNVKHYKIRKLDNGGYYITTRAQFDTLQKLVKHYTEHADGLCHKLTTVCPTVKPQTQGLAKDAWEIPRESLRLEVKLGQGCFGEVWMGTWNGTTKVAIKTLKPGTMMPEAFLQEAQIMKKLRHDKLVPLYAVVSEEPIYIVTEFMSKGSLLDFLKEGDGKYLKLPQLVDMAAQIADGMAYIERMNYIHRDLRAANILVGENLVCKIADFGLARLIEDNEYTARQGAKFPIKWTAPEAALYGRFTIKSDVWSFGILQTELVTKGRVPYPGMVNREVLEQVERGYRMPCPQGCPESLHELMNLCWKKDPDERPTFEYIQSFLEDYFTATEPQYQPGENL
Sequence of PRKD1 (human) (Q15139 whole entry, looked up): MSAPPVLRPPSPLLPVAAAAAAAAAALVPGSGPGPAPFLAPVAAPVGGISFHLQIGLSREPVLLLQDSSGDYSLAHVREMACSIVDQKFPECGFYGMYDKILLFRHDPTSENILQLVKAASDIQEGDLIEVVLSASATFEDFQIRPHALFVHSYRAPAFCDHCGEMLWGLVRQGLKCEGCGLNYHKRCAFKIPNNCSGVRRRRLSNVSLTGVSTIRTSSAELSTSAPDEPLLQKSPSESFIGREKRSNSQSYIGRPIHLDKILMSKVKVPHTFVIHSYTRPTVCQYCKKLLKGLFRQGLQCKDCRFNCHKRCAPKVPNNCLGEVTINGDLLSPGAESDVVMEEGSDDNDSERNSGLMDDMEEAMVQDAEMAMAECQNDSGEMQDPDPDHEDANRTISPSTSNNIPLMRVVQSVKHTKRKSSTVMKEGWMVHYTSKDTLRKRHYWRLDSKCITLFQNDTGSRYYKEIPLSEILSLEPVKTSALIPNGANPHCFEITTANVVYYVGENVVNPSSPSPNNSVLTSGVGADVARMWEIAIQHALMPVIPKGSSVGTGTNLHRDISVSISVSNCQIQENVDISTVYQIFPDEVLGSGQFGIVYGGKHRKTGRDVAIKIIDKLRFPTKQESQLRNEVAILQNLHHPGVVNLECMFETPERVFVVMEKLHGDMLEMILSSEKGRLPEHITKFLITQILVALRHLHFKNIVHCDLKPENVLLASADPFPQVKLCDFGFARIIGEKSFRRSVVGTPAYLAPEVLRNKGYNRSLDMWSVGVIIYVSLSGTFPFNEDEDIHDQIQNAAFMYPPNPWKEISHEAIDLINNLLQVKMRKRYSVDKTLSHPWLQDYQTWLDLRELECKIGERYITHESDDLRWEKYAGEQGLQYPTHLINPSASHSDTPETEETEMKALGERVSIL

Row | Structure (SMILES) | kinase still bound, per cent of control [1] [%] | kinase still bound, per cent of control [2] [%] | kinase still bound, per cent of control [3] [%] | kinase still bound, per cent of control [4] [%] | kinase still bound, per cent of control [5] [%] | kinase still bound, per cent of control [6] [%] | kinase still bound, per cent of control [7] [%] | kinase still bound, per cent of control [8] [%] | kinase still bound, per cent of control [9] [%] | kinase still bound, per cent of control [10] [%] | kinase still bound, per cent of control [11] [%] | kinase still bound, per cent of control [12] [%] | kinase still bound, per cent of control [13] [%] | kinase still bound, per cent of control [14] [%] | kinase still bound, per cent of control [15] [%] | kinase still bound, per cent of control [16] [%] | kinase still bound, per cent of control [17] [%] | kinase still bound, per cent of control [18] [%] | kinase still bound, per cent of control [19] [%] | kinase still bound, per cent of control [20] [%] | other results
1 | COc1cc(C)c(Sc2cnc(NC(=O)c3ccc(CNC(C)C(C)C)cc3)s2)cc1C(=O)N1CCN(C(C)=O)CC1 (configuration not stated) | 100 | 100 | 100 | 100 | 100 | 100 | 12 | 100 | 100 | 100 | 100 | 100 | 100 | 100 | 100 | 100 | 100 | 100 | 100 | 100 | kinase still bound, per cent of control [21]: 100%; kinase still bound, per cent of control [22]: 100%; kinase still bound, per cent of control [23]: 100%; kinase still bound, per cent of control [24]: 12%; kinase still bound, per cent of control [25]: 100%; kinase still bound, per cent of control [26]: 100%; kinase still bound, per cent of control [27]: 100%; kinase still bound, per cent of control [28]: 100%; kinase still bound, per cent of control [29]: 100%; kinase still bound, per cent of control [30]: 100%
2 | COc1ccc(N(C(=O)Oc2cc(C(=O)Nc3cccc(C(F)(F)F)c3)ccc2C)c2ccnc(Nc3ccc(N4CCN(C)CC4)cc3)n2)c(OC)c1 | 100 | 100 | 4.5 | 100 | 1.2 | 0.6 | 0.45 | 100 | 100 | 100 | 1.6 | 100 | 100 | 100 | 0 | 2.3 | 100 | 100 | 100 | 4 | kinase still bound, per cent of control [21]: 100%; kinase still bound, per cent of control [22]: 100%; kinase still bound, per cent of control [23]: 100%; kinase still bound, per cent of control [24]: 100%; kinase still bound, per cent of control [25]: 2%; kinase still bound, per cent of control [26]: 0.55%; kinase still bound, per cent of control [27]: 100%; kinase still bound, per cent of control [29]: 3.3%; kinase still bound, per cent of control [30]: 100%
3 | COc1cc(N2CCC(C(N)=O)CC2)ccc1Nc1nc(N)c(Cl)c(Nc2ccccc2S(=O)(=O)C(C)C)n1 | 100 | 100 | 100 | 100 | 100 | 0.15 | 100 | 22 | 100 | 100 | 100 | 100 | 4.1 | 100 | 100 | 100 | 100 | 100 | 100 | 0.2 | kinase still bound, per cent of control [21]: 14%; kinase still bound, per cent of control [22]: 100%; kinase still bound, per cent of control [23]: 100%; kinase still bound, per cent of control [24]: 100%; kinase still bound, per cent of control [25]: 100%; kinase still bound, per cent of control [26]: 100%; kinase still bound, per cent of control [27]: 100%; kinase still bound, per cent of control [28]: 100%; kinase still bound, per cent of control [29]: 100%; kinase still bound, per cent of control [30]: 100%
4 | Cc1cn(-c2cc(C(=O)Nc3ccc(C)c(NC(=O)c4ccno4)c3)cc(C(F)(F)F)c2)cn1 | 100 | 100 | 100 | 100 | 100 | 100 | 13 | 100 | 100 | 100 | 100 | 100 | 100 | 100 | 100 | 100 | 100 | 100 | 100 | 100 | kinase still bound, per cent of control [31]: 100%; kinase still bound, per cent of control [32]: 100%; kinase still bound, per cent of control [21]: 100%; kinase still bound, per cent of control [33]: 100%; kinase still bound, per cent of control [22]: 100%; kinase still bound, per cent of control [23]: 100%; kinase still bound, per cent of control [24]: 100%; kinase still bound, per cent of control [34]: 100%; kinase still bound, per cent of control [25]: 100%; kinase still bound, per cent of control [26]: 0.1%; kinase still bound, per cent of control [27]: 100%; kinase still bound, per cent of control [28]: 100%; kinase still bound, per cent of control [29]: 100%; kinase still bound, per cent of control [30]: 100%
5 | CCOc1cc(N2CCC(O)CC2)ccc1Nc1ncc2c(n1)N(C)c1ccccc1C(=O)N2C | 100 | 100 | 100 | 100 | 100 | 100 | 100 | 100 | 100 | 100 | 100 | 100 | 100 | 100 | 100 | 100 | 100 | 100 | 100 | 17 | kinase still bound, per cent of control [31]: 100%; kinase still bound, per cent of control [32]: 100%; kinase still bound, per cent of control [21]: 100%; kinase still bound, per cent of control [33]: 100%; kinase still bound, per cent of control [22]: 100%; kinase still bound, per cent of control [23]: 100%; kinase still bound, per cent of control [24]: 100%; kinase still bound, per cent of control [34]: 100%; kinase still bound, per cent of control [25]: 100%; kinase still bound, per cent of control [26]: 100%; kinase still bound, per cent of control [27]: 100%; kinase still bound, per cent of control [28]: 100%; kinase still bound, per cent of control [29]: 100%; kinase still bound, per cent of control [30]: 100%

Reference: the kinase profiling compilation of Christmann-Franck et al. (2016)
